Source: US20240408071A1, “NOVEL COMBINATION OF SEROTONIN RECEPTOR (5-HTR2B) ANTAGONIST AND AN IMMUNOMODULATOR AND CHEMOTHERAPEUTIC DRUGS FOR INHIBITION OF CANCER” (NATIONAL CENTRE FOR CELL SCIENCE, priority 2021, published 2024)

Experiments:
[1] = tested on: MC38 colon cancer cells; assay: MC38 colon tumor growth (tumor volume) in C57BL/6 mice; assay type: in vivo
Method: Tumor volumes were measured and plotted. (B) MC38 colon cancer cells were injected subcutaneously into the right flank of C57BL/6 mice. After seven days when tumors became palpable, one group was treated with 5-HTR7 antagonist SB-269970 (n=6 mice; 3 mg/kg/day) or left untreated (n=6 mice). Tumor volume was measured and plotted. (C) After seven days of the setting of tumor growth, one group was treated with a serotonin transporter blocker (SSRI) sertraline hydrochloride (n=6 mice; 15 mg/kg/week) or left untreated (n=6 mice). Tumor volume was measured and plotted. (D) C57BL/6 mice were given subcutaneously injected MC38 cells. After seven days of tumor growth, one group of mice was treated with different doses of 5-HTR2B antagonist SB-215505 (n=6). Tumor volume was measured and plotted. (E) C57BL/6 mice were given subcutaneously injected MC38 cells. After seven days of the tumor growth, one group of mice was treated with different doses of 5-HTR2B antagonist SB-215505 (n=6), one group treated with 5-HTR2B agonist BW-723C86 (n=6; 4 mg/kg/day). Tumor volume was measured and plotted. (F) MC38 cells were subcutaneously injected into C57BL/6 mice. After seven days when the tumor became palpable in mice, one group of mice was treated with FDA-approved 5-HTR2B antagonist cariprazine (Carispec; Sun pharma) via oral gavage (n=5 mice; dose 5 mg/kg body weight/day) or left untreated (n=5 mice). Tumor growth was measured and plotted. […] All the statistical analysis was performed using Student's ‘t’ test or two-way ANOVA using Sidak's multiple comparison test. *P<0.05; **P<0.01; ***P<0.00; ****P<0.0001 Error bar represents mean±standard error of means (SEM).

[2] = tested on: 4T1-Luc2 cells; assay: 4T1-Luc2 breast cancer model, tumor volume; assay type: in vivo, BALB/c mice; conditions: SB-215505 vs untreated, from day 7 (FIG. 7G)
Method: FIG. 7 depicts that antagonizing the 5-HTR2B in mice inhibits breast and colon tumor growth: (A) MC38 colon cancer cells were injected subcutaneously into the right flank of C57BL/6 mice. […] Tumor volumes were measured and plotted. (B) MC38 colon cancer cells were injected subcutaneously into the right flank of C57BL/6 mice. After seven days when tumors became palpable, one group was treated with 5-HTR7 antagonist SB-269970 (n=6 mice; 3 mg/kg/day) or left untreated (n=6 mice). Tumor volume was measured and plotted. (C) After seven days of the setting of tumor growth, one group was treated with a serotonin transporter blocker (SSRI) sertraline hydrochloride (n=6 mice; 15 mg/kg/week) or left untreated (n=6 mice). Tumor volume was measured and plotted. (D) C57BL/6 mice were given subcutaneously injected MC38 cells. After seven days of tumor growth, one group of mice was treated with different doses of 5-HTR2B antagonist SB-215505 (n=6). Tumor volume was measured and plotted. […] Tumor volume was measured and plotted. […] Tumor growth was measured and plotted. […] Tumour volumes were measured and plotted. […] Tumour volumes were measured and plotted. […]
FIG. 16 depicts the effect of the 5-HTR2B antagonist on the FDA-approved chemotherapy drug treatment: (A) BALB/C mice were inoculated with 4T1-Luc2 cells in the mammary fat pad. […] Tumor volume was measured and plotted. […]

[3] = tested on: B16F10 cells; assay: B16F10 melanoma model, tumor volume; assay type: in vivo, C57BL/6J mice; conditions: SB-215505 vs untreated, from day 7 (FIG. 7H)
Method: FIG. 7 depicts that antagonizing the 5-HTR2B in mice inhibits breast and colon tumor growth: (A) MC38 colon cancer cells were injected subcutaneously into the right flank of C57BL/6 mice. […] Tumor volumes were measured and plotted. (B) MC38 colon cancer cells were injected subcutaneously into the right flank of C57BL/6 mice. After seven days when tumors became palpable, one group was treated with 5-HTR7 antagonist SB-269970 (n=6 mice; 3 mg/kg/day) or left untreated (n=6 mice). Tumor volume was measured and plotted. (C) After seven days of the setting of tumor growth, one group was treated with a serotonin transporter blocker (SSRI) sertraline hydrochloride (n=6 mice; 15 mg/kg/week) or left untreated (n=6 mice). Tumor volume was measured and plotted. (D) C57BL/6 mice were given subcutaneously injected MC38 cells. After seven days of tumor growth, one group of mice was treated with different doses of 5-HTR2B antagonist SB-215505 (n=6). Tumor volume was measured and plotted. (E) C57BL/6 mice were given subcutaneously injected MC38 cells. After seven days of the tumor growth, one group of mice was treated with different doses of 5-HTR2B antagonist SB-215505 (n=6), one group treated with 5-HTR2B agonist BW-723C86 (n=6; 4 mg/kg/day). Tumor volume was measured and plotted. […] Tumor growth was measured and plotted. […] Tumour volumes were measured and plotted. […] Tumour volumes were measured and plotted. […]

[4] = tested on: MC38 cells; assay: MC38 tumor growth in immuno-compromised NRG mice; assay type: in vivo; conditions: 4 mg/kg/day from day 7; not as much as in wild-type mice (FIG. 8B)
Method: FIG. 8 depicts that 5-HTR2B antagonism promotes antigen-specific immune response to the tumor: (A) Experimental protocol for SB-215505 treatment in MC38 tumor-bearing NRG mice. In brief, (B) MC38 cells were injected subcutaneously into NRG mice. After seven days of the tumor growth setting in mice, one group of mice was treated with 5-HTR2B antagonist SB-215505 (n=5 mice) or left untreated (n=5 mice). Tumour volumes were measured and plotted. (C) Experimental protocol for adoptive transfer of SB-215505 pre-treated naïve or MC38 tumor primed immune cells in MC38 tumor-bearing NRG mice. In brief: (D) MC38 cells were injected subcutaneously into NRG mice. Those mice were adoptively transferred with naïve (n=4 mice) or MC38 tumor primed immune cells (n=4 mice) or SB-215505 pre-treated naïve (n=4 mice) or SB-215505 pre-treated MC38 tumor primed immune cells (n=4 mice) from the day of tumor inoculation. After the tumor begins to appear, tumor volumes were measured and plotted. […]
MC38 and MC38-cOVA cells were injected subcutaneously into the right flank of male C57BL/6 or NRG mice (0.5×10^6 cells/mouse in 150 μl PBS). […] Tumor volume was measured using a Vernier caliper on each alternate day or every third day as soon as the tumor appears. The volume of the tumor was measured using the formula V=L×W^2/2, where L=length of the tumor (mm) and W=width of the tumor (mm). […]

[5] = tested on: MC38 cells; assay: MTT cell viability assay; assay type: cell-based, mouse; conditions: graded dose; reduced serum media; 48 hours of stimulation
Method: FIG. 6 depicts that 5-HTR2B signalling in colon cancer affects cell proliferation and viability: Colon cancer MC38 cells were treated with serotonin (100 μM), 5-HTR2B agonist (BW-723C86; 50 μM), or 5-HTR2B antagonist (SB-215505; 50 μM) for 48 hours, and cell cycle analysis was performed by propidium iodide staining using flow cytometry. MC38 cells were also treated with a graded dose of 5-HTR2B agonist (BW-723C86) or serotonin. MTT assay was performed to measure cell viability. (A) After treatment with 5-HTR2B agonist BW-723C86, serotonin, or 5-HTR2B antagonist SB-215505, the relative cell cycle analysis is shown. (B) Relative cell viability data of MC38 cells following treatment of graded doses of 5-HTR2B agonist BW-723C86 or serotonin are shown. The data shown are representative of one of the three independent experiments. (C) MC38 tumor sections from the control tumor and 5-HTR2B antagonist treated tumor were stained for CD31 and the number of CD31^+ micro-blood vessels/mm^2 of tissue sections was counted and plotted to observe angiogenesis. Error bar represents ±standard error of the mean (SEM).
MC38 cells were cultured at a density of 0.5×10^4 cells/well in 96 well plates (flat bottom) and were allowed to adhere for 24 hours. […] Then, MTT crystals were dissolved with DMSO, and the reading was taken at 590 nm in an ELISA reader (Thermofisher). […]

[6] = tested on: PD-L1; assay: PD-L1 expression on MC38 cells in vitro (flow cytometry, mRNA); assay type: cell-based, mouse; conditions: BW-723C86 50 μM, serotonin 100 μM, RS-127445 50 μM, 72 hours (mRNA 48 hours) (FIG. 13A-E)
Method: FIG. 13 depicts 5-HTR2B signaling promotes PD-L1 expression on the MC38 cell line in vitro: (A-B) MC38 cells are treated with 5-HTR2B agonist (BW-723C86-50 μM), serotonin (100 μM), and 5-HTR2B antagonist (RS-127445-50 μM) for 72 hours, and the PD-L1 expression was checked by flow cytometry and the percentage of PD-L1^+ MC38 cells was plotted. (C-D) MFI of PD-L1 from the above experiment were plotted as histogram overlay (C) or as statistical data points (D). (E) Relative PD-L1 mRNA expression in MC38 cells following BW-723C86 and RS-127445 treatment for 48 hours. Here the values are shown as a fold change as compared to control MC38 cells. (F) Serum PD-L1 level was measured by ELISA of naïve C57BL/6J mice, control MC38 tumor-bearing mice, BW-723C86 (5 mg/kg/day) treated MC38 tumor-bearing mice and RS-127445 (5 mg/kg/day) treated MC38 tumor-bearing mice after 14 days of tumor inoculation. All the statistical analysis was performed using either Student's ‘t’ test or two-way ANOVA using Sidak's multiple comparison test. *P<0.05; **P<0.01; […]; ****P<0.0001 Error bar represents mean±standard error of means (SEM).
To understand it, investigations were done on whether 5-HTR2B signaling also affects the surface expression of molecules that alters inflammatory and cytotoxic immune cells. Among different molecules, PD-L1 is of particular interest as it is an immune checkpoint ligand that affects cytotoxic T-cell responses toward cancer. […] (FIG. 13F).

[7] = 4 mg/kg/day from day 7 after inoculation, vs untreated (FIG. 7A)

SMILES: Cc1nc2sccn2c(=O)c1CCN1CCC(=C(c2ccc(F)cc2)c2ccc(F)cc2)CC1 [Ritanserin]
- MC38 tumor growth [1, 7]: controls tumor growth to some extent
- MC38 tumor growth ([1]; 4 mg/kg/day from day 7 after inoculation, vs untreated (FIG. 7A), listed as ritanserin): did not prevent tumor growth

SMILES: Cc1cc2c(cc1Cl)N(C(=O)Nc1cccc3ncccc13)CC2 [SB-215505]
- MC38 tumor growth [1, 7]: efficiently control the tumor growth
- most efficient dose in reducing MC38 tumor growth ([1]; dose-response, doses from 0.5 mg/kg/day to 4 mg/kg/day (FIG. 7D)): 4 mg/kg/day
- tumor burden, mice breast cancer model [2]: reduced tumor burden
- tumor burden, mice melanoma model [3]: reduced tumor burden
- MC38 tumor growth in NRG mice [4]: suppressed to some extent

SMILES: CN(C)C(=O)N[C@H]1CC[C@H](CCN2CCN(c3cccc(Cl)c3Cl)CC2)CC1 [cariprazine]
- MC38 tumor growth ([1]; oral gavage, 5 mg/kg body weight/day (FIG. 7F)): significant reduction in MC38 tumor growth

SMILES: NCCc1c[nH]c2ccc(O)cc12 [serotonin]
- viability of MC38 cells [5]: enhanced the viability of MC38 cells
- expression of PD-L1 in the colon cancer cells [6]: did not significantly alter the PD-L1 expression
